One block for each molecule: values may come before it. *1 amine or outer side, *2 acyl side, *3 side chain or, on linkers, in order; H or OH if unused. Where a SMILES comes first, the peptide text is derived from it. [ ]: non-standard residue; d: D form. The star is where a group is joined. Abu(ψCOCO) = CC[C@H](N[*:1])C(=O)C(=O)[*:2]; X1 = NC(=O)CC[C@H](N[*:1])C(=O)C(=O)[*:2]; X2 = C[C@H](N[*:1])C(=O)C(F)(F)C(=O)[*:2]; Pentanoyl(4-Me) = CC(C)CCC(=O)*; Bn = c1ccc(C*)cc1; CF3 = FC(F)(F)*; NHcPr = C1CC1N*
Assays:
[1] = target: T1, Subtilisin-like protease 1 (Plasmodium falciparum, UniProt O61142); experiment: Inhibition of Plasmodium falciparum SUB1 in intact schizonts
T1 sequence (O61142 whole entry): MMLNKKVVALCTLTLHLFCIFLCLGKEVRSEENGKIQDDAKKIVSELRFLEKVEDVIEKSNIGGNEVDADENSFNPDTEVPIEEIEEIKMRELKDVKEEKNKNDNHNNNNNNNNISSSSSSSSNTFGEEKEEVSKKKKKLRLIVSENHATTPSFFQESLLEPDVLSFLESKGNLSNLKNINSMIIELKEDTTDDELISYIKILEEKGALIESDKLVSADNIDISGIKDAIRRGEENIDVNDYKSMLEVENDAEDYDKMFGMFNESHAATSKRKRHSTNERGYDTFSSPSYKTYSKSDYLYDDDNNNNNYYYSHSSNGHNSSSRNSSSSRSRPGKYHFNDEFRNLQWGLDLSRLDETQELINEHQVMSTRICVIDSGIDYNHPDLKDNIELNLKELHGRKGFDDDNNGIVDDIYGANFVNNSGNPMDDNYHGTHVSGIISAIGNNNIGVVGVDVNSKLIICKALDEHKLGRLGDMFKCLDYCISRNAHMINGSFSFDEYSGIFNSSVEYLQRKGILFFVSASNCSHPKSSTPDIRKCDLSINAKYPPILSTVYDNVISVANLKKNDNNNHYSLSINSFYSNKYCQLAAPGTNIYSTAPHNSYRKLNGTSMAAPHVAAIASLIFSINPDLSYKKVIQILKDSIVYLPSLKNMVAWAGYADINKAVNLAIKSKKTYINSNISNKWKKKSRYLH

Plasmodium falciparum [2] = experiment: Antimalarial activity against Plasmodium falciparum Dd2 assessed as inhibition of parasitic growth measured after 48 hrs; format: functional, organism-based; details: Dd2, 48 h
[3] = target: T1, Subtilisin-like protease 1; experiment: Binding affinity to Plasmodium falciparum SUB1 using KLVSADNIDIS peptide as substrate by FRET assay
Plasmodium falciparum [4] = experiment: Antimalarial activity against Plasmodium falciparum 3D7 assessed as inhibition of parasitic growth measured after 48 hrs; format: functional, organism-based; details: 3D7, 48 h
Plasmodium falciparum [5] = experiment: Antimalarial activity against synchronized Plasmodium falciparum 3D7 infected in human RBC assessed as inhibition of cell invasion incubated for 4 to 8 hrs by Giemsa staining based microscopic analysis; format: functional; details: 3D7, Erythrocyte, time 4-8 hrs, read-out: ED50 (the source's name)
Plasmodium falciparum [6] = experiment: Antimalarial activity against synchronized Plasmodium falciparum 3D7 infected in human RBC assessed as inhibition of parasite growth at schizont stage incubated for 4 to 8 hrs by Giemsa staining based microscopic analysis; format: functional; details: 3D7, Erythrocyte, time 4-8 hrs, read-out: ED50 (the source's name)
[7] = target: T1, Subtilisin-like protease 1; experiment: Inhibition of recombinant Plasmodium falciparum SUB1 using SERA4st1F-6R1 as substrate by fluorescence spectrophotometer
[8] = target: T1, Subtilisin-like protease 1; experiment: Inhibition of Plasmodium falciparum SUB1
Plasmodium falciparum [9] = experiment: Antimalarial activity against Plasmodium falciparum 3D7 assessed as inhibition of parasite growth incubated for 96 hrs by SYBR Green dye based assay; format: functional, organism-based; details: 3D7, 96 h
[10] = Inhibition of recombinant Plasmodium knowlesi SUB1 using SERA4st1F-6R1 as substrate by fluorescence spectrophotometer
[11] = Inhibition of recombinant Plasmodium vivax SUB1 using SERA4st1F-6R1 as substrate by fluorescence spectrophotometer
[12] = target: T1, Subtilisin-like protease 1; experiment: Inhibition of recombinant C-terminal 6-His tagged Plasmodium falciparum SUB1 expressed in baculovirus expression system
[13] = Inhibition of recombinant C-terminal 6-His tagged Plasmodium vivax SUB1 expressed in baculovirus expression system
[14] = Inhibition of Plasmodium vivax SUB1
[15] = Inhibition of Bacillus licheniformis Subtilisin A

IC50 [1]: 18 µM
SMILES: O=C(CCCCCNC(=O)CCCC[C@H]1SC[C@H]2NC(=O)N[C@H]21)NCCCCCC(=O)Nc1ccc2c(Cl)c(OCCc3ccccc3)oc(=O)c2c1

Ki [3]: 14.7 µM
SMILES: CSc1ccc(CCNC(=O)Cn2ncc3c([nH]c4ccccc43)c2=O)cc1
IC50 (Plasmodium falciparum [2]): > 50 µM
IC50 (Plasmodium falciparum [4]): > 50 µM

Ki [3]: 7.6 µM
SMILES: O=C(Nc1ccc(-c2nc3cc(NC(=O)c4ccccc4)ccc3[nH]2)cc1)c1ccccc1
IC50 (Plasmodium falciparum [2]): 3.3 µM
IC50 (Plasmodium falciparum [4]): 1.1 µM

EC50 (Plasmodium falciparum [5]): 25 µM
SMILES: Oc1ccc(C2Oc3c(c(O)cc4c3C3c5c(O)cc(O)c(O)c5OC(c5ccc(O)c(O)c5)(O4)C3O)CC2O)cc1O (stereo not given)
EC50 (Plasmodium falciparum [6]): 108 µM

SMILES: COc1ccc(Nc2cc(C)c3cc(NC(=O)c4cc5ccccc5[nH]4)ccc3n2)cc1
IC50 (Plasmodium falciparum [2]): 0.45 µM
IC50 (Plasmodium falciparum [4]): 0.37 µM

IC50 [7]: > 50 µM
SMILES: CC[C@H](C)[C@H](NC(C)=O)C(=O)N[C@H](C(=O)N[C@@H](C)C(=O)N[C@@H](C)C(=O)C(F)(F)C(=O)O)[C@@H](C)O

IC50 [7]: 17 µM
SMILES: Nc1cc2nc(Nc3ccc(Br)cc3)c(Nc3ccc(Br)cc3)nc2cc1Cl

IC50 [8]: 9.3 µM
SMILES: CC(=O)N[C@H](C(=O)N[C@H](C(=O)NCC(=O)N[C@@H](C)B(O)O)[C@@H](C)O)C1CCCC1
EC50 (Plasmodium falciparum [9]): 2300 nM

IC50 [8]: 5.7 µM
SMILES: CC(=O)N[C@H](C(=O)N[C@H](C(=O)NCC(=O)N[C@@H](C)B(O)O)C(C)C)C1CCCC1
EC50 (Plasmodium falciparum [9]): 260 nM

Ki [3]: 30 µM
SMILES: COc1cc(Cl)c(C)cc1NC(=O)Cn1c(=O)n(CC(=O)NC2CCCC2)c(=O)c2ccccc21
IC50 (Plasmodium falciparum [2]): > 50 µM
IC50 (Plasmodium falciparum [4]): > 50 µM

IC50 [8]: 0.37 µM
SMILES: CC(=O)N[C@H](C(=O)N[C@H](C(=O)NCC(=O)NC(C)C(=O)C(=O)NCCC(=O)O)[C@@H](C)O)C1CCCC1 (stereo not given in full)

IC50 [7]: 14 µM
SMILES: Clc1cc(Nc2nc3ccccc3nc2Nc2ccc(Br)c(Cl)c2)ccc1Br

IC50 [8]: 0.069 µM
SMILES: CC[C@H](C)[C@H](NC(C)=O)C(=O)N[C@H](C(=O)NCC(=O)N[C@@H](C)B(O)O)[C@@H](C)O
EC50 (Plasmodium falciparum [9]): 1800 nM

IC50 [8]: 7.8 µM
SMILES: CC(=O)N[C@H](C(=O)N[C@@H](C)C(=O)NCC(=O)N[C@@H](C)B(O)O)C1CCCC1
EC50 (Plasmodium falciparum [9]): 340 nM

Ki [3]: 30.1 µM
SMILES: CCc1cccc(NC(=O)c2ccc3c(=O)n4nc(Nc5cc(C)ccc5C)sc4nc3c2)c1
IC50 (Plasmodium falciparum [2]): 22.3 µM
IC50 (Plasmodium falciparum [4]): 17.1 µM

IC50 [8]: 4.6 µM
SMILES: CC(=O)N[C@H](C(=O)N[C@H](C(=O)NCC(=O)N[C@H]1CCOB1O)[C@@H](C)O)C1CCCC1
EC50 (Plasmodium falciparum [9]): 15000 nM

IC50 [7]: 1 µM
SMILES: CC(C)[C@H](NC(=O)Cc1ccccc1)C(=O)NCC(=O)N[C@@H](C)C(=O)C(F)(F)C(=O)NCC(=O)O

IC50 [7]: 11 µM
SMILES: CS(=O)(=O)Nc1cc2nc(Nc3ccc(Br)cc3)c(Nc3ccc(Br)cc3)nc2cc1Cl

IC50 [7]: 10 µM
SMILES: Brc1ccc(Nc2nc3ccccc3nc2Nc2ccc(Br)cc2)cc1

SMILES: CC[C@H](C)[C@H](NC(C)=O)C(=O)N[C@H](C(=O)N[C@@H](C)C(=O)N[C@@H](C)C(=O)C(F)(F)F)[C@@H](C)OCc1ccccc1 (Ac-IT(Bn)AA-CF3)
IC50 [7]: > 50 µM

IC50 [10]: 680 nM
IC50 [11]: 2200 nM
SMILES: CC[C@H](C)[C@H](NC(C)=O)C(=O)N[C@H](C(=O)N[C@@H](C)C(=O)N[C@@H](C)C(=O)C(F)(F)C(=O)NCC(=O)O)[C@@H](C)O (Ac-ITA[X2]G-OH)

SMILES: CC[C@H](C)[C@H](NC(C)=O)C(=O)N[C@H](C(=O)NCC(=O)N[C@@H](C)C(=O)C(F)(F)C(=O)NCC(=O)O)C(C)C (Ac-IVG[X2]G-OH)
IC50 [7]: 0.25 µM

SMILES: CC[C@H](NC(=O)[C@H](C)NC(=O)[C@@H](NC(=O)[C@@H](NC(=O)[C@H](CCCCN)NC(C)=O)[C@@H](C)CC)[C@@H](C)O)C(=O)C(=O)NC1CC1 (Ac-KITA[Abu(ψCOCO)]-NHcPr)
IC50 [12]: 6 µM
IC50 [13]: 12 µM

IC50 [10]: 1120 nM
IC50 [11]: 2500 nM
SMILES: CC[C@H](C)[C@H](NC(=O)[C@H](CCCCN)NC(C)=O)C(=O)N[C@H](C(=O)N[C@@H](C)C(=O)N[C@@H](C)C(=O)C(F)(F)C(=O)NCC(=O)O)[C@@H](C)O (Ac-KITA[X2]G-OH)

SMILES: CC[C@H](C)[C@H](NC(=O)[C@H](CCCCN)NC(=O)CCC(C)C)C(=O)N[C@H](C(=O)N[C@@H](C)C(=O)N[C@@H](CCC(N)=O)C(=O)C(=O)N[C@@H](CC(=O)O)C(=O)N[C@@H](CC(=O)O)C(=O)N[C@@H](CCC(N)=O)C(=O)N[C@@H](CCC(N)=O)C(N)=O)[C@@H](C)O ({Pentanoyl(4-Me)}-KITA[X1]DDQQ-NH2)
IC50 [8]: 17.8 µM
IC50 [14]: 10.5 µM

IC50 [15]: 59.3 µM
SMILES: CC1(C)CC[C@]2(C(=O)O)CC[C@]3(C)C(=CC[C@@H]4[C@@]5(C)C[C@@H](O)[C@H](O)C(C)(C)[C@@H]5CC[C@]43C)[C@@H]2C1 [MASLINIC ACID]

From ChEMBL document CHEMBL5150018, “Subtilisin-like Serine Protease 1 (SUB1) as an Emerging Antimalarial Drug Target: Current Achievements in Inhibitor Discovery” (J Med Chem, 2022)
